Laboratory results published in patent US20250101011A1, “PEPTIDYL NITRILE COMPOUND AND USE THEREOF” (SHANGHAI YIDIAN PHARMACEUTICAL TECHNOLOGY DEVELOPMENT CO., …, priority 2022, published 2025).

These compounds were tested against DPP1 (Homo sapiens (Human), UniProt P53634) (assay: DPP1 activity inhibition test on U937 cells). Conditions: 5 nM compound, substrate h-Gly-phe-AFC.
Format: cell-based
Protocol: After incubation at 37° C. for 1 h, add h-Gly-phe-AFC (10 μL) to each well and start reaction.

Chain of DPP1 (P53634 25-463): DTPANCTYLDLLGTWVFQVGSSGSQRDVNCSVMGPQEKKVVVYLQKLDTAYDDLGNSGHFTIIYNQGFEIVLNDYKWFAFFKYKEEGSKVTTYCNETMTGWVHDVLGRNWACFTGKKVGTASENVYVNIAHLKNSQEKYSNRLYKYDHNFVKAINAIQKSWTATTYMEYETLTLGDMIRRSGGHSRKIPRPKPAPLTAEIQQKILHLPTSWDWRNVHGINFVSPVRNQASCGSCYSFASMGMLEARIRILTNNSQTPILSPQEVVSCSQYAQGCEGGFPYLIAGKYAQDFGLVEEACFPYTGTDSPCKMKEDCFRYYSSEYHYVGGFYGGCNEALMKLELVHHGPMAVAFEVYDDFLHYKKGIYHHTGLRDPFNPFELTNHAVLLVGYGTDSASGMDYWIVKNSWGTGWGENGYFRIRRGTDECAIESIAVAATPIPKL

Compound | Average Inhibition % @5 nM
N#C[C@H](Cc1ccc(-c2ccc3nccn3c2)cc1)NC(=O)[C@@H]1CNCCCO1 [Compound D01] | − (“−”: inhibition % < 30%)

Same assay, conditions: 50 nM compound, substrate h-Gly-phe-AFC

Compound | Average Inhibition % @50 nM
N#C[C@H](Cc1ccc(-c2ccc3nccn3c2)cc1)NC(=O)[C@@H]1CNCCCO1 [Compound D01] | − (“−”: inhibition % < 30%)

Same assay, conditions: U-937, 5 nM compound, substrate h-Gly-phe-AFC

inhibition at 0.005 µM [%] | Compound
< 30 | N#C[C@H](Cc1ccc(-c2cc3c(s2)CNC3=O)cc1)NC(=O)[C@@H]1CNCCCO1 [Compound D13]
< 30 | N#C[C@H](Cc1ccc(-c2ccc3oc(=O)n(CC4CCO4)c3c2)cc1F)NC(=O)[C@@H]1CNCCCO1 (stereo partly shown) [Compound D95]
30 to 75 | Cn1c(=O)oc2ccc(-c3ccc(C[C@@H](C#N)NC(=O)[C@@H]4CNCCCO4)cc3)cc21 [AZD7986, Brensocatib, reference compound]
< 30 | Cn1c(=O)oc2ccc(-c3ccc(C[C@@H](C#N)NC(=O)[C@@H]4CNCC5(COC5)CO4)c(F)c3)cc21 [Compound D98]
30 to 75 | CN1CC(n2c(=O)oc3ccc(-c4ccc(C[C@@H](C#N)NC(=O)[C@@H]5CNCCCO5)cc4)cc32)C1 [Compound D24]
< 30 | CS(=O)(=O)Cn1c(=O)oc2ccc(-c3ccc(C[C@@H](C#N)NC(=O)[C@@H]4CNCCCO4)c(F)c3)cc21 [Compound D80]
30 to 75 | CC1(C)Cc2cc(-c3ccc(C[C@@H](C#N)NC(=O)[C@@H]4CNCCCO4)c(F)c3)ccc2C1=O [Compound D117]
< 30 | N#C[C@H](Cc1ccc(-c2ccc3oc(=O)n(C4CS(=O)(=O)C4)c3c2)cc1F)NC(=O)[C@@H]1CNCCCO1 [Compound D71]
< 30 | N#C[C@H](Cc1ccc(-c2ccc3c(c2)CC2(CC2)C3=O)cc1F)NC(=O)[C@@H]1CNCCCO1 [Compound D116]
< 30 | CN1CCC(n2c(=O)oc3ccc(-c4ccc(C[C@@H](C#N)NC(=O)[C@@H]5CNCCCO5)c(F)c4)cc32)C(F)(F)C1 (stereo partly shown) [Compound D100]
< 30 | N#C[C@H](Cc1ccc(-c2ccc3oc(=O)n(C4COC4)c3c2)cc1F)NC(=O)[C@@H]1CNCCCO1 [Compound D99]
< 30 | COCC1OC(=O)c2ccc(-c3ccc(C[C@@H](C#N)NC(=O)[C@@H]4CNCCCO4)c(F)c3)cc21 (stereo partly shown) [Compound D77]

Compound | inhibition at 0.005 µM [%]
N#C[C@H](Cc1ccc(-c2ccc3c(n2)C2(CCN(C4COC4)CC2)OC3)cc1)NC(=O)[C@@H]1CNCCCO1 [Compound D30] | < 30
CN1CCC2(CC1)OC(=O)c1cnc(-c3ccc(C[C@@H](C#N)NC(=O)[C@@H]4CNCCCO4)cc3)cc12 [Compound D38] | < 30
CN1CCC2(CC1)OCc1ccc(-c3ccc(C[C@@H](C#N)NC(=O)[C@@H]4CNCCCO4)cc3)cc12 [Compound D27] | < 30
CN1CCC2(CC1)OCc1cnc(-c3ccc(C[C@@H](C#N)NC(=O)[C@@H]4CNCCCO4)cc3)cc12 [Compound D39] | < 30

Same assay, conditions: U-937, 50 nM compound, substrate h-Gly-phe-AFC

inhibition at 0.05 µM [%] | Compound
< 30 | N#C[C@H](Cc1ccc(-c2cc3c(s2)CNC3=O)cc1)NC(=O)[C@@H]1CNCCCO1 [Compound D13]
75 to 100 | N#C[C@H](Cc1ccc(-c2ccc3oc(=O)n(CC4CCO4)c3c2)cc1F)NC(=O)[C@@H]1CNCCCO1 (stereo partly shown) [Compound D95]
75 to 100 | Cn1c(=O)oc2ccc(-c3ccc(C[C@@H](C#N)NC(=O)[C@@H]4CNCCCO4)cc3)cc21 [AZD7986, Brensocatib, reference compound]
< 30 | Cn1c(=O)oc2ccc(-c3ccc(C[C@@H](C#N)NC(=O)[C@@H]4CNCC5(COC5)CO4)c(F)c3)cc21 [Compound D98]
75 to 100 | CN1CC(n2c(=O)oc3ccc(-c4ccc(C[C@@H](C#N)NC(=O)[C@@H]5CNCCCO5)cc4)cc32)C1 [Compound D24]
< 30 | CS(=O)(=O)Cn1c(=O)oc2ccc(-c3ccc(C[C@@H](C#N)NC(=O)[C@@H]4CNCCCO4)c(F)c3)cc21 [Compound D80]
75 to 100 | CC1(C)Cc2cc(-c3ccc(C[C@@H](C#N)NC(=O)[C@@H]4CNCCCO4)c(F)c3)ccc2C1=O [Compound D117]
< 30 | N#C[C@H](Cc1ccc(-c2ccc3oc(=O)n(C4CS(=O)(=O)C4)c3c2)cc1F)NC(=O)[C@@H]1CNCCCO1 [Compound D71]
30 to 75 | N#C[C@H](Cc1ccc(-c2ccc3c(c2)CC2(CC2)C3=O)cc1F)NC(=O)[C@@H]1CNCCCO1 [Compound D116]
30 to 75 | CN1CCC(n2c(=O)oc3ccc(-c4ccc(C[C@@H](C#N)NC(=O)[C@@H]5CNCCCO5)c(F)c4)cc32)C(F)(F)C1 (stereo partly shown) [Compound D100]
30 to 75 | N#C[C@H](Cc1ccc(-c2ccc3oc(=O)n(C4COC4)c3c2)cc1F)NC(=O)[C@@H]1CNCCCO1 [Compound D99]
75 to 100 | COCC1OC(=O)c2ccc(-c3ccc(C[C@@H](C#N)NC(=O)[C@@H]4CNCCCO4)c(F)c3)cc21 (stereo partly shown) [Compound D77]

Compound | inhibition at 0.05 µM [%]
N#C[C@H](Cc1ccc(-c2ccc3c(n2)C2(CCN(C4COC4)CC2)OC3)cc1)NC(=O)[C@@H]1CNCCCO1 [Compound D30] | 30 to 75
CN1CCC2(CC1)OC(=O)c1cnc(-c3ccc(C[C@@H](C#N)NC(=O)[C@@H]4CNCCCO4)cc3)cc12 [Compound D38] | 30 to 75
CN1CCC2(CC1)OCc1ccc(-c3ccc(C[C@@H](C#N)NC(=O)[C@@H]4CNCCCO4)cc3)cc12 [Compound D27] | 30 to 75
CN1CCC2(CC1)OCc1cnc(-c3ccc(C[C@@H](C#N)NC(=O)[C@@H]4CNCCCO4)cc3)cc12 [Compound D39] | 30 to 75

Same assay, conditions: intracellular enzyme activity, substrate h-Gly-phe-AFC

IC50 [nM] | Compound
> 1000 | Cn1c(=O)oc2ccc(-c3ccc(C[C@@H](C#N)NC(=O)[C@@H]4CNCC(C)(C)CO4)cc3)cc21 [Compound D50]
17 | N#C[C@H](Cc1ccc(-c2ccc3oc(=O)n(CC4CCO4)c3c2)cc1F)NC(=O)[C@@H]1CNCCCO1 (stereo partly shown) [Compound D95]
29.4 | CN1CC2(Cc3cc(-c4ccc(C[C@@H](C#N)NC(=O)[C@@H]5CNCCCO5)c(F)c4)ccc3C2=O)C1 [Compound D115]
6 | CC1(C)Cc2cc(-c3ccc(C[C@@H](C#N)NC(=O)[C@@H]4CNCCCO4)c(F)c3)ccc2C1=O [Compound D117]
6.1 | N#C[C@H](Cc1ccc(-c2ccc3c(c2)C2(COC2)OC3=O)cc1F)NC(=O)[C@@H]1CNCCCO1 [Compound D119]
367 | CN1CC(Cn2c(=O)oc3ccc(-c4ccc(C[C@@H](C#N)NC(=O)[C@@H]5CNCCCO5)c(F)c4)cc32)C1 [Compound D96]
